In patent publication US20260240800A1, “ELAFIBRANOR FOR THE TREATMENT OF PRIMARY BILIARY CHOLANGITIS” (Genfit, priority 2023, published 2026):

Tested on: participants with primary biliary cholangitis
Assay: NCT04526665 (ELATIVE) double-blind, placebo-controlled phase 3 clinical trial
Type: in vivo, human
Protocol: Participants aged 18 to 75 years, who had been diagnosed with primary biliary cholangitis according to established criteria, were recruited at 82 sites in 14 countries. Inclusion criteria were an alkaline phosphatase level of ≥1.67 times the upper limit of the normal range (ULN), and a total bilirubin level of ≤2 times the ULN. Prior to screening, eligible participants had received 13 to 15 mg/kg ursodeoxycholic acid treatment per day for at least 12 months (stable dose for at least 3 months) or were intolerant to ursodeoxycholic acid (no treatment for at least 3 months).
In this double-blind, placebo-controlled, phase 3 trial, participants with an inadequate response or intolerance to ursodeoxycholic acid were randomized 2:1 to receive elafibranor 80 mg or placebo once daily. Participants receiving stable doses of ursodeoxycholic acid for at least three months prior to enrollment continued their treatment regimen throughout the trial. The overall double-blind treatment period consisted of two parts. In part one, all randomized participants received a minimum of 52 weeks of double-blind treatment. In part two, participants continued to receive double-blind treatment beyond Week 52 in a variable treatment period until all participants had completed their Week 52 assessment or until a maximum treatment duration of 104 weeks, whichever came first. The first database lock occurred after the last participant completed their Week 52 visit in the double-blind period. At the end of the double-blind period (lasting 52 to 104 weeks), participants could optionally enter an open-label extension where they would receive elafibranor 80 mg for up to five years.
The primary endpoint of Study NCT04526665 was response to treatment in the intent-to-treat population at Week 52, defined as ALP<1.67×ULN, TB≤ULN, and ALP decrease ≥15% from baseline. The primary endpoint was also analyzed according to baseline alkaline phosphatase levels of ≤3 times versus >3 times the ULN.
From September 2020 through May 2023, 161 participants were randomly assigned to receive elafibranor 80 mg (108 participants) or placebo (53 participants); these participants made up the intent-to-treat (ITT) and safety populations.

With `CSc1ccc(C(=O)C=Cc2cc(C)c(OC(C)(C)C(=O)O)c(C)c2)cc1` [elafibranor, 2-(2,6-dimethyl-4-{3-[4-(methylsulfanyl)phenyl]-3-oxoprop-1-en-1-yl}phenoxy)-2-methylpropanoic acid] the “efficacy in baseline ALP >1.67×ULN and ≤3×ULN relative to baseline ALP >3×ULN” value (80 mg daily) was “more than 3 times”, the “Primary endpoint met at week 52, n (%)” value (1.67 ULN < ALP ≤ 3 ULN, ITT Analysis Set, n=65) was 46 (70.8) n (%) and the “Response according to Paris I criteria: Primary endpoint met at week 52, n (%)” value (ALP <3×ULN, AST <2×ULN and TB ≤1 mg/dL, ITT Analysis Set, n=106) was 73 (68.9) n (%). The “Primary endpoint met at week 52, n (%)” value (ALP > 3 ULN, ITT Analysis Set, n=43) was 9 (20.9) n (%), the “safety and tolerability in patients” value (PBC patients) was “safe and well-tolerated” and the “Odds Ratio of response (elafibranor vs placebo), Paris I criteria” value (Week 52, ITT Analysis Set) was 2.852. For the same molecule, the “Proportion of responders (Paris I criteria)” value (Week 52, ITT Analysis Set) was 0.689, the “Risk difference (Paris I response, elafibranor vs placebo)” value (Week 52, ITT Analysis Set) was 0.220 and the “difference in Paris I response vs placebo” value (Week 52, ITT Analysis Set) was 22.0%. The “participants with response based on ALP<3×ULN, AST<2×ULN and TB≤1 mg/dl (Paris I)” value (Week 52, ITT Analysis Set, 73/106) was 68.9%, the “complete normalization of alkaline phosphatase at Week 52, difference vs placebo” value (all participants, Week 52) was 15% and the “complete normalization of alkaline phosphatase at Week 52, odds ratio vs placebo” value (all participants, Week 52, 95% CI 2.8 to infinity) was “infinity”. For the same molecule, the “complete normalization of alkaline phosphatase at Week 52, % of participants” value (all participants, elafibranor 80 mg once daily, Week 52) was 15%, the “complete normalization of alkaline phosphatase at Week 52, % of patients” value (baseline ALP >3 times the ULN) was 4.7% and the “participants who met the primary endpoint (ALP<1.67×ULN, TB≤ULN, ALP decrease ≥15%)” value (baseline ALP >3 times the ULN (43 participants), Week 52) was 20.9%. The “frequency of ALP normalization relative to other participants (FIG. 4)” value (baseline ALP more than 1.67×ULN and at most 2×ULN vs others, Week 52) was “at least 4 times”, the “participants with a biochemical response at Week 52 (FIG. 3)” value (“participants with a biochemical response” for short) (baseline ALP more than 1.67×ULN and at most 2.5×ULN) was “more than 80%” and the “participants with a biochemical response” value (baseline ALP more than 2.5×ULN and at most 3×ULN) was “more than 50%”. For the same molecule, the “participants with a biochemical response” value (baseline ALP more than 3×ULN) was “less than 23%”, the “biochemical response and ALP normalization rates by baseline ALP (FIGS. 3 to 5)” value (baseline ALP ≤3 ULN versus higher baseline ALP) was “higher biochemical response and ALP normalization rates” and the “complete normalization of alkaline phosphatase at Week 52, % of patients” value (baseline ALP ≤3 times the ULN) was 21.5%. For the same molecule, the “participants who met the primary endpoint (ALP<1.67×ULN, TB≤ULN, ALP decrease ≥15%)” value (baseline ALP ≤3 times the ULN (65 participants), Week 52) was 70.8%, the “reductions in alkaline phosphatase levels over time” value (baseline through Week 4, sustained significantly lower than placebo through Week 52) was “Rapid reductions” and the “reduction in plasma ALP levels from baseline compared to placebo” value (treatment with elafibranor vs placebo) was “statistically significant reduction”.
